Target: T1, OPRM1 (Homo sapiens, UniProt P35372)
T1 construct: purchased Promega (in-house HiBiT-GPCR construct library, NanoBRET)
Test: NanoBRET screen HiBiT-OPRM1 in HEK293
Assay type: binding
Method: Each tracer candidate was screened across the entire library of HiBiT-GPCR constructs using NanoBRET as the detection modality. As depicted in Figure 4A, the specificity of interactions was evaluated through decrease in BRET due to competitive displacement of a bound tracer by excess parental compound. Each tracer was analyzed for binding to each HiBiT-GPCR fusion in the absence and in the presence of competing parental compound. Briefly, HEK293 cells were transfected with HiBiT-GPCR constructs diluted into promoterless DNA to reduce expression and maximize translocation to the cell surface. Each tracer candidate was then screened at concentrations of 1 μM and 0.1 μM across cells expressing these fusions. Cells were treated for 1.5 h with tracer either alone or in the presence of 20 μM competing parental compound (i.e., control). BRET was measured upon addition of purified LgBiT and subsequent complementation with HiBiT genetically fused to a GPCR. The specificity of interactions was assessed through a decrease in BRET signal due to competitive displacement of the bound tracer. To further gauge the robustness of these interactions, the fold response over the control (i.e., BRETtracer/BRETcontrol) was calculated. We chose a 1.5-fold response, which translates to ≥7-fold signal over noise as the minimal threshold required to score an interaction as positive.
HiBiT-GPCR DNA constructs were diluted in 10 mM Tris pH 8 to a final concentration of 0.01 μg/μL, arrayed in 96-well plates and stored at −20 °C. For transfection, HEK293 cells were suspended in Opti-MEM (without phenol red) supplemented with 2% fetal bovine serum (Seradigm) and 100 units/mL penicillin–streptomycin (Gibco) at a final concentration of 220,000 cells/mL and dispensed into white 96-well plates at 90 μL/well. Subsequent transfections and screens were carried using an Agilent Bravo Automated Liquid Handling Platform. First, the 96-well HiBiT DNA arrays were diluted 25-fold in Opti-MEM (without serum or phenol red) to a final concentration of 0.0004 μg/μL and 20 μL of the diluted DNAs were transferred into new 96-well plates. Next, promoterless carrier DNA (1 μg/μL) was diluted 25-fold (0.04 μg/μL) and then dispensed into the diluted arrays at 20 μL/well. Following brief mixing, Viafect transfection reagent (Promega) diluted 16-fold into Opti-MEM was dispensed into the plates at 40 μL/well. After mixing by pipetting, plates were incubated for 10 min on the pipetting station deck. The DNA-transfection reagent complexes were then added to plates containing cells. To facilitate the screen, 10 μL of DNA-transfection reagent complexes were added in duplicates to the top 4 and bottom 4 rows, resulting in two identical 48-well arrays per plate. Plates with transfected cells were incubated for 18–20 h at 37 °C/5% CO2. A screen of each tracer across the entire library using two different concentrations requires duplicate plates of transfected cells. Depending on the number of tracers being screened, transfections can be scaled up using the same ratios. The next day, for each tracer, four 20× screening solutions in tracer dilution buffer (Promega) were prepared: two duplicates at final concentration of 20 μM and two duplicates at a final concentration of 2 μM. […] The four resulting solutions were diluted 4-fold in Opti-MEM without serum or phenol red to generate 5× solutions (5 µM and 0.5 µM tracer +/− 100 μM competing compound). To screen the library, a BioTek MultiFlo FX liquid dispenser was used to dispense 22.5 µL of tracer solution to the top 4 rows and 22.5 µL tracer + competing compound solution to the 4 bottom rows. Plates were briefly mixed on an orbital shaker and incubated for 1.5 h at room temperature. […] Plates were briefly mixed on an orbital shaker and incubated for 15 min to allow complementation.

T1 sequence (P35372 whole entry): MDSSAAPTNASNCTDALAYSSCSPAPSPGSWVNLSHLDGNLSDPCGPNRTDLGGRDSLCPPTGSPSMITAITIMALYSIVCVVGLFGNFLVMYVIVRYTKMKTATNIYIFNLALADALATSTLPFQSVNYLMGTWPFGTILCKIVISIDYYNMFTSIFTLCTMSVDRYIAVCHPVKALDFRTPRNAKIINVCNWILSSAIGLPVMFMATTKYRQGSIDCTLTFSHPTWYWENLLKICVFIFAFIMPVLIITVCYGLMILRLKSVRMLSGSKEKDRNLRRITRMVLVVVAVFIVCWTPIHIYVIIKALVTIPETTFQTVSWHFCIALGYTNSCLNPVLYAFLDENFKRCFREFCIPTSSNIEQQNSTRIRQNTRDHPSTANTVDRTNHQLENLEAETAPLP

SMILES	NanoBRET Fold Response (OPRM1, tracer 0.1μM)	NanoBRET Fold Response (OPRM1, tracer 1μM)	further results
Cc1nc2n(c(=O)c1CCN1CCC(c3noc4cc(F)ccc34)CC1)CCCC2OC(=O)NCCOCCOCCOCCOCCNC(=O)CCc1ccc2n1[B-](F)(F)[N+]1=C(c3ccc[nH]3)C=CC1=C2 (stereo not shown) [Risperidone-2-NB590]	0.92	0.96	–
CCOC(=O)c1cc(C#N)c(N2CCC(C(=O)NS(=O)(=O)Cc3ccccc3/C=C/C(=O)NCCNC(=O)CCc3ccc4n3[B-](F)(F)[N+]3=C(c5ccc[nH]5)C=CC3=C4)CC2)nc1C [AZD1283-1-NB590]	–	–	NanoBRET Fold Response (OPRM1, 0.1μM): 1.07; NanoBRET Fold Response (OPRM1, 1μM): 0.95
Cc1cc2c(s1)Nc1ccccc1N=C2N1CCN(CCCNC(=O)CCOCCOCCOCCOCCNC(=O)CCc2ccc3n2[B-](F)(F)[N+]2=C(c4ccc[nH]4)C=CC2=C3)CC1 [Olanzapine-a-2-NB590]	0.96	1.08	–
COc1ccccc1N1CCN(CCCCN2C(=O)c3ccc(CNC(=O)CCOCCNC(=O)c4ccc(CNC(=O)CCc5ccc6n5[B-](F)(F)[N+]5=C(c7ccc[nH]7)C=CC5=C6)cc4)cc3C2=O)CC1 [NAN-190-3-NB590]	1.39	0.91	–
CC(C)N(CC[C@H](c1ccccc1)c1cc(CCNC(=O)CCOCCOCCOCCOCCNC(=O)CCc2ccc3n2[B-](F)(F)[N+]2=C(c4ccc[nH]4)C=CC2=C3)ccc1O)C(C)C [Tolterodine-2-NB590]	1.23	1.10	–
CN(C)CCC=C1c2ccccc2CCc2ccc(C(=O)NCCNC(=O)CCOCCOCCOCCOCCNC(=O)CCc3ccc4n3[B-](F)(F)[N+]3=C(c5ccc[nH]5)C=CC3=C4)cc21 [Amitriptyline-b-2-NB590]	–	–	NanoBRET Fold Response (tracer at 0.1μM, listed as amitriptyline-b-2-NB590): 0.87; NanoBRET Fold Response (tracer at 1μM, listed as amitriptyline-b-2-NB590): 0.87
O=C(CCOCCOCCOCCOCCNC(=O)CCc1ccc2n1[B-](F)(F)[N+]1=C(c3ccc[nH]3)C=CC1=C2)NCCCN1CCN(C2=Nc3ccccc3Oc3ccc(Cl)cc32)CC1 [Loxapine-a-2-NB590]	1.06	1.06	–
CN(C)CCC=C1c2ccccc2CCc2ccc(C(=O)NCCNC(=O)CCOCCOCCOCCOCCNC(=O)CCc3ccc4n3[B-](F)(F)[N+]3=C(c5ccc[nH]5)C=CC3=C4)cc21 [Amitriptyline-a-2-NB590]	–	–	NanoBRET Fold Response (tracer at 0.1μM): 0.95; NanoBRET Fold Response (tracer at 1μM): 1.10
O=C(CCc1ccc2n1[B-](F)(F)[N+]1=C(c3ccc[nH]3)C=CC1=C2)NCCOCCOCCNC(=O)OCCOCCN1CCN(C2=Nc3ccccc3Sc3ccccc32)CC1 [Quetiapine-a-2-NB590]	0.84	0.89	–
COc1ccccc1N1CCN(CCCCN2C(=O)c3ccc(CNC(=O)CCOCCOCCOCCOCCNC(=O)CCc4ccc5n4[B-](F)(F)[N+]4=C(c6ccc[nH]6)C=CC4=C5)cc3C2=O)CC1 [NAN-190-2-NB590]	0.96	1.10	–
CN1CCN(C2=Nc3cc(Cl)ccc3N(CC(=O)NCCOCCOCCOCCOCCNC(=O)CCc3ccc4n3[B-](F)(F)[N+]3=C(c5ccc[nH]5)C=CC3=C4)c3ccccc32)CC1 [Clozapine-c-2-NB590]	–	–	NanoBRET Fold Response (OPRM1, 0.1μM tracer): 0.98; NanoBRET Fold Response (OPRM1, 1μM tracer): 0.94
N#CN/C(=N\CCNC(=O)c1ccc(N)cc1)NCCCOc1cccc(CN2CCCCC2)c1 [Aminopotentidine (unmodified)]	–	–	NanoBRET Fold Response (OPRM1, other tracers/Aminopotentidine (unmodified), 0.1μM): 1.22; NanoBRET Fold Response (OPRM1, other tracers/Aminopotentidine (unmodified), 1μM): 0.99
COc1ccc2[nH]c(-c3ccc(CNC(=O)CCOCCOCCOCCOCCNC(=O)CCc4ccc5n4[B-](F)(F)[N+]4=C(c6ccc[nH]6)C=CC4=C5)cc3)c(CCNC(C)=O)c2n1 [AzomelatoninICO9-2-NB590]	–	–	NanoBRET Fold Response (0.1μM tracer): 0.74; NanoBRET Fold Response (1μM tracer): 0.86
O=C(CCOCCOCCOCCOCCNC(=O)CCc1ccc2n1[B-](F)(F)[N+]1=C(c3ccc[nH]3)C=CC1=C2)NCCCN1CCN(C2=Nc3cc(Cl)ccc3Nc3ccccc32)CC1 [Clozapine-a-2-NB590]	–	–	NanoBRET Fold Response (OPRM1, 0.1μM tracer): 0.98; NanoBRET Fold Response (OPRM1, 1μM tracer): 1.13
CCCn1c(=O)c2[nH]c(-c3ccc(OCC(=O)NCCNC(=O)CCOCCNC(=O)c4ccc(CNC(=O)CCc5ccc6n5[B-](F)(F)[N+]5=C(c7ccc[nH]7)C=CC5=C6)cc4)cc3)nc2n(CCC)c1=O [XAC-3-NB590]	0.85	1.02	–
O=C(CCc1ccc2n1[B-](F)(F)[N+]1=C(c3ccc[nH]3)C=CC1=C2)NCc1ccc(C(=O)NCCOCCOCCNCC(O)COc2cccc3ccccc23)cc1 (stereo not shown) [Propranolol-3-NB590]	–	–	NanoBRET Fold Response (OPRM1, 0.1μM): 1.02; NanoBRET Fold Response (OPRM1, 1μM): 1.21
O=C(CCc1ccc2n1[B-](F)(F)[N+]1=C(c3ccc[nH]3)C=CC1=C2)NCc1ccc(C(=O)NCCOCCC(=O)N[C@@H]2CC[C@@]3(O)[C@H]4Cc5ccc(O)c6c5[C@@]3(CCN4CC3CC3)[C@H]2O6)cc1 [Naltrexone-3-NB590]	1.59	1.31	–
CN(CCC=C1c2ccccc2CCc2ccccc21)C(=O)CCOCCOCCOCCOCCNC(=O)CCc1ccc2n1[B-](F)(F)[N+]1=C(c3ccc[nH]3)C=CC1=C2 [Amitriptyline-e-2-NB590]	–	–	NanoBRET Fold Response (tracer at 1μM): 1.04
N#CN=C(NCCCOc1cccc(CN2CCCCC2)c1)NCCNC(=O)CCOCCOCCOCCOCCNC(=O)CCc1ccc2n1[B-](F)(F)[N+]1=C(c3ccc[nH]3)C=CC1=C2 [Aminopotentidine-2-NB590]	1.02	1.01	–
COc1ccc2c(n1)c(CCNC(C)=O)cn2CCNC(=O)CCc1ccc2n1[B-](F)(F)[N+]1=C(c3ccc[nH]3)C=CC1=C2 [Azamelatonin-1-NB590]	–	–	NanoBRET Fold Response (0.1μM tracer): 1.22; NanoBRET Fold Response (1μM tracer): 1.22
CC(C)N(CC[C@H](c1ccccc1)c1cc(CCNC(=O)c2ccc(CNC(=O)CCc3ccc4n3[B-](F)(F)[N+]3=C(c5ccc[nH]5)C=CC3=C4)cc2)ccc1O)C(C)C [Tolterodine-BZ-NB590]	0.95	0.93	–
CN1CCN(C2=Nc3cc(Cl)ccc3Nc3ccc(CNC(=O)CCOCCOCCOCCOCCNC(=O)CCc4ccc5n4[B-](F)(F)[N+]4=C(c6ccc[nH]6)C=CC4=C5)cc32)CC1 [Clozapine-b-2-NB590]	–	–	NanoBRET Fold Response (OPRM1, 0.1μM tracer): 0.96; NanoBRET Fold Response (OPRM1, 1μM tracer): 0.86
